This is an account of results in PMC9730482 (ACS Omega, 2022).

The target in the assay is α-glucosidase (Saccharomyces cerevisiae, UniProt P38158). The experiment in a line: In vitro α-glucosidase inhibition assay. To be noted: for inhibition at 500 µM: read-out: percent inhibition (0.5 mM). In kind it is biochemical, S. cerevisiae.
α-glucosidase, sequence (P38158 whole entry): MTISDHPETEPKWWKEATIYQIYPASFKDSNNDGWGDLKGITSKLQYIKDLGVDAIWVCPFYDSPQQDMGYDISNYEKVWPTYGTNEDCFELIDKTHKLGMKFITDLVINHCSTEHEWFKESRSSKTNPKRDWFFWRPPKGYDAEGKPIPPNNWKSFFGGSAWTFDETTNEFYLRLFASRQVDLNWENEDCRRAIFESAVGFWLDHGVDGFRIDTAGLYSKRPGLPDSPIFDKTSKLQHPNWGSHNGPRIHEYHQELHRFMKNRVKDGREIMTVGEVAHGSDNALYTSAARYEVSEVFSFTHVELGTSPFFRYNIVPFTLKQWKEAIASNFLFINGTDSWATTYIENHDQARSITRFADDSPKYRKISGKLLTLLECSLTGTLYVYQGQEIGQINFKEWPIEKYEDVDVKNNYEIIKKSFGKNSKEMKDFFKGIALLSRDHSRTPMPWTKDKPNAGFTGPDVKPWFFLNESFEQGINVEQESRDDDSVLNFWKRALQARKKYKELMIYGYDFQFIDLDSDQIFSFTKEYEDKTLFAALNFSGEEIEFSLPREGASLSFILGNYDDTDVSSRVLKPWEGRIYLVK

The IC50 is the point on the concentration scale where inhibition reaches its midpoint. Higher therefore signals a need for much substance. What is called inhibition is the drop in the measured response relative to a control, in per cent. Regarding `Oc1ccc(C=Nc2ccc3[nH]c(S)nc3c2)cc1` [7a, 4-(((2-Mercapto-1H-benzo[d]imidazol-5-yl)imino)methyl)phenol], the IC50 turned out to be 11.8 ± 0.26 µM and the inhibition at 500 µM came out at 95.7%. As to `Sc1nc2cc(N=Cc3ccc(Cl)cc3)ccc2[nH]1` [7b, 5-((4-Chlorobenzylidene)amino)-1H-benzo[d]imidazole-2-thiol], the concentration for half-maximal inhibition (IC50) was determined as 27.3 ± 0.3 µM and the inhibition at 500 µM was 93.2%.

`O=[N+]([O-])c1ccc(C=Nc2ccc3[nH]c(S)nc3c2)cc1` [7c, 5-((4-Nitrobenzylidene)amino)-1H-benzo[d]imidazole-2-thiol]: inhibition was half-maximal at 9.84 ± 0.08 µM (IC50) and the inhibition at 500 µM came to 95.7%. Consider `CCN(CC)c1ccc(C=Nc2ccc3[nH]c(S)nc3c2)cc1` [7d, 5-((4-(Diethylamino)benzylidene)amino)-1H-benzo[d]imidazole-2-thiol], for which the midpoint of inhibition, the IC50, lay at 5.34 ± 0.16 µM and the inhibition at 500 µM came out at 96.6%. The corresponding values for `COc1cccc(C=Nc2ccc3[nH]c(S)nc3c2)c1O` [7e, 2-(((2-Mercapto-1H-benzo[d]imidazol-5-yl)imino)methyl)-6-methoxyphenol] are 16.4 ± 0.53 µM and 91.3%.

As to `COc1ccc(C=Nc2ccc3[nH]c(S)nc3c2)c(OC)c1` [7f, 5-((2,4-Dimethoxybenzylidene)amino)-1H-benzo[d]imidazole-2-thiol], the IC50 came to 6.46 ± 0.3 µM and the inhibition at 500 µM came out at 95%.

Take `COc1ccc(C=Nc2ccc3[nH]c(S)nc3c2)cc1OC` [7h, 5-((3,4-Dimethoxybenzylidene)amino)-1H-benzo[d]imidazole-2-thiol]: the IC50 worked out at 20.7 ± 0.59 µM and the inhibition at 500 µM worked out at 91.7%.

Consider `Oc1ccc(C=Nc2ccc3[nH]c(S)nc3c2)c(O)c1` [7i, 4-(((2-Mercapto-1H-benzo[d]imidazol-5-yl)Imino)methyl)benzene-1,3-diol], for which the midpoint of inhibition, the IC50, lay at 0.64 ± 0.05 µM and the inhibition at 500 µM turned out to be 95.4%. Turning to `COc1cc(C=Nc2ccc3[nH]c(S)nc3c2)cc(OC)c1OC` [7j, 5-((3,4,5-Trimethoxybenzylidene)amino)-1H-benzo[d]imidazole-2-thiol], the half-maximal inhibitory concentration (IC50) was 18.7 ± 0.74 µM and the inhibition at 500 µM worked out at 94.7%. The matching figures for `Sc1nc2cc(N=Cc3cccs3)ccc2[nH]1` [7k, 5-((Thiophen-2-ylmethylene)amino)-1H-benzo[d]imidazole-2-thiol]: 70.3 ± 1.52 µM and 87.6%. The corresponding values for `COc1ccccc1C=Nc1ccc2[nH]c(S)nc2c1` [7l, 5-((2-Methoxybenzylidene)amino)-1H-benzo[d]imidazole-2-thiol] are 343.1 ± 1.62 µM and 83.2%. With `Cc1ccc(C=Nc2ccc3[nH]c(S)nc3c2)cc1` [7m, 5-((4-Methylbenzylidene)amino)-1H-benzo[d]imidazole-2-thiol], the IC50 amounted to 11.1 ± 0.79 µM and the inhibition at 500 µM was 94%.

Regarding `C[C@H]1O[C@H](O[C@H]2[C@H](O)[C@@H](O)[C@@H](O[C@H]3[C@H](O)[C@@H](O)C(O)O[C@@H]3CO)O[C@@H]2CO)[C@H](O)[C@@H](O)[C@@H]1N[C@H]1C=C(CO)[C@@H](O)[C@H](O)[C@H]1O` (stereo partly shown) [acarbose, reference compound], the inhibition at 500 µM was found to be 58.5%.
